The values that follow come from patent US20190357538A1, “An Antifungal Composition Comprising Natamycin and C4-C22 Fatty Acids, Monoglycerides of These Fatty Acids and/or Derivatives of These Fatty Acids” (Arec Crop Protection B.V., priority 2015, published 2019).

Structures can show the parent of a compound that is named as a salt.

Series [1] relates to Saccharomyces cerevisiae. As to the kind of experiment: filter disc inhibition zone on PDA Petri dishes (145 mm), Example 2. The format is cell-based. The conditions noted are these: after 16 h. The method, then: Saccharomyces cerevisiae (at least 10^5 cfu/ml) was distributed on Petri dishes with a diameter of 145 mm containing 30 ml Potato Dextrose Agar (PDA; Carl Roth; pH of about 6) using sterilized swabs. […] As controls, the effects of the fatty acid salts alone (without natamycin) were tested. Yeast growth was also measured after incubation on medium without natamycin and fatty acid salts. Following the application of a filter, Petri dishes were incubated upside down for 24 h in a refrigerator at 4° C. to allow diffusion of natamycin into the agar. After 24 h the filter discs were removed from the agar and the Petri dishes were incubated upside down in a stove at 30° C. […] After 16 h incubation in the stove the size of the inhibition zone was determined using a digital caliper gauge. The data are presented as square mm and are an average of four replicas.

Series [2] concerns Fusarium oxysporum f. sp. cubense. As to the kind of experiment: in vitro 96-well microtiter plate assay, visible mould development. The series is classed as cell-based. Conditions: substance alone.
Series [3] deals with Saccharomyces cerevisiae. Nature of the series: filter disc inhibition zone on PDA Petri dishes (90 mm, 50 μL), Example 4. The series is classed as cell-based. The conditions noted are these: 3 mM natamycin alone; after 16 h. The method, then: Saccharomyces cerevisiae (at least 10^5 cfu/mL) was distributed on Petri dishes with a diameter of 90 mm containing 10 ml PDA agar (Carl Roth, pH about 6) using sterilized swabs. Filter paper discs (Whatman) with a diameter of 6 mm were loaded with 50 μL of a solution containing a concentration of 3 mM natamycin plus 0.3 mM of a mixture of oleic acid sodium salt and stearic acid sodium salt in a 50/50 ratio (this mixture will be referred to as fatty acid mix). As controls, the effect of the fatty acid mix alone (without natamycin) was tested on yeast growth. Yeast growth was also determined after incubation on medium without both natamycin and fatty acid salts. The size of the inhibition zone is a result of the natamycin and/or fatty acid salts released from the sample disc. After 16 h of incubation in the stove the size of the inhibition zone was measured using a digital caliper gauge. The data are presented as square mm and are an average of four replicas.

Series [4] has as its system Saccharomyces cerevisiae. Nature of the series: filter disc inhibition zone on Petri dishes (90 mm), Example 3. The series is classed as cell-based. The conditions noted are these: for surface of inhibition zone: 90 mm dish, after 16 h. As for the experimental part:
Saccharomyces cerevisiae (at least 10^5 cfu/ml) was distributed on Petri dishes with a diameter of 145 mm containing 30 ml Potato Dextrose Agar (PDA; Carl Roth; pH of about 6) using sterilized swabs. Filter paper discs (Whatman, Antibiotic Assay Paper, grade AA) with a diameter of 6 mm were loaded with 40 μl of a solution of 3 mM natamycin (Chinonbio, China, 95%) plus 0, 0.03, 0.09, 0.3 or 0.9 mM of sodium salts of butanoic acid (Carl Roth >99%), caprylic acid (Carl Roth, >99.5%), palmitic acid (Sigma, sodium palmitate 98.5) or stearic acid (Carl Roth, sodium stearate 88-92%). As controls, the effects of the fatty acid salts alone (without natamycin) were tested. Yeast growth was also measured after incubation on medium without natamycin and fatty acid salts.
Following the application of a filter, Petri dishes were incubated upside down for 24 h in a refrigerator at 4° C. to allow diffusion of natamycin into the agar. After 24 h the filter discs were removed from the agar and the Petri dishes were incubated upside down in a stove at 30° C. […] After 16 h incubation in the stove the size of the inhibition zone was determined using a digital caliper gauge. The data are presented as square mm and are an average of four replicas.
The experiment was performed as described in example 2, except that the diameter of the petri dishes was 90 mm. Measurement of the inhibition zone was after 16 hours.

A short description of series [5]: solubility of natamycin in aqueous composition (description). The series is classed as physicochemical. The conditions noted are these: presence of fatty acids, monoglycerides and/or derivatives; pH between 5 and 9.
Series [6] has as its system Botrytis cinerea. As to the kind of experiment: rot on wounded apples inoculated with Botrytis cinerea. The conditions noted are these: 3 mM natamycin; for Lesion area on apple fruits: 0 FA; for Antifungal activity (%): apple fruits. The series is classed as in vivo. The source says: Tested fruit: apples cv Maribelle from organic origin/SKAL certified. SKAL is a semi-governmental Dutch organization that controls organic production in the Netherlands. Wounds of the apples were checked at day 5 and 7. A mixture of fatty acid sodium salts containing oleic acid sodium salt and stearic acid sodium salt in a 50/50 ratio was used in this experiment and will be referred to as fatty acid mix. Used pathogen: Botrytis cinerea spore-suspension containing 10^6 spores/ml. Application: The fruit peel of the apple was damaged with a cork borer, ø 4 mm and depth ˜0.5 cm into the fruit, with 2 wounds per apple. 40 microliter of a freshly prepared spore suspension of B. cinerea was applied by pipette onto each wound. Subsequently, the spore-suspension was allowed to air-dry for 4 hours. Then, 40 microliter of a treatment as presented in the list above was applied by pipette to each wound. All fruits were kept at room temperature (20° C.). Wounds of the apples were checked after 4 and 7 days of incubation. […] Replicates: All treatments for the apple experiment were performed on six individual apples with two wounds each resulting in 12 wounds per treatment.

A short description of series [7]: saturation level of natamycin in water by HPLC. The series is classed as physicochemical.
The mark [8] stands for this setting: 0.03 mM fatty acid salt without natamycin.
Where [9] appears, read: 0.09 mM fatty acid salt without natamycin.
Where [10] appears, read: 0.3 mM fatty acid salt without natamycin.
The mark [11] stands for this setting: 0.9 mM fatty acid salt without natamycin.

`C[C@@H]1C/C=C/C=C/C=C/C=C/[C@H](O[C@@H]2O[C@H](C)[C@@H](O)[C@H](N)[C@@H]2O)C[C@@H]2O[C@](O)(C[C@@H](O)C[C@H]3O[C@@H]3/C=C/C(=O)O1)C[C@H](O)[C@H]2C(=O)O` [Natamycin, natamycin]: the “surface of inhibition zone” value was determined as 585 square mm in series [1] (3 mM natamycin, 0 mM fatty acid salt, 40 μl per disc) and 788 square mm in series [4] (3 mM natamycin, 0 mM caprylic acid salt). Besides, the “sensitivity of Fusarium oxysporum” value in series [2] was > 7 µM. Besides, the Inhibition zone in series [3] was determined as 480 square mm. The solubility of natamycin result in series [5] was “increased”. In addition, the “Lesion area on apple fruits” value in series [6] (5 days after inoculation) is 130 mm^2; in series [6] (7 days after inoculation), 308 mm^2. The “Antifungal activity (%)” value in series [6] (incubation 5 days) is listed as 62%; in series [6] (incubation 7 days), 50%. In addition, the “Dissolved natamycin in water” value in series [7] (ratio natamycin:salts of oleic and stearic acid mix 1:0 (g:g), room temperature) came out at 46 mg/L. In series [7] (without addition of fatty acids), the “level dissolved in water” value is “about 46 ppm”.

Consider `CCCC(=O)O` [butanoic acid-Na, butanoic acid], for which the “surface of inhibition zone” value in series [1] (setting [8]), in series [1] (setting [9]), in series [1] (setting [10]) and in series [1] (setting [11]) was 0 square mm each time.

For `CCCCCCCC(=O)O` [caprylic acid ammonium salt, caprylic acid], in series [4] (caprylic acid salt 0.09, 0.3 and 0.9 mM with natamycin), the “effect on natamycin-inhibited yeast growth” value is on record as “enhanced”. For the same molecule, the “inhibition of growth of yeast by the salts themselves” value in series [4] (without natamycin) is listed as “did not inhibit”.

`CCCCCCCC(=O)O` [caprylic acid potassium salt, caprylic acid]: the “surface of inhibition zone” value in series [4] (0.03 mM caprylic acid salt without natamycin), in series [4] (0.09 mM caprylic acid salt without natamycin), in series [4] (0.3 mM caprylic acid salt without natamycin) and in series [4] (0.9 mM caprylic acid salt without natamycin) was 0 square mm in each case.

`CCCCCCCC(=O)O` [caprylic acid-Na, caprylic acid]: the “surface of inhibition zone” value in series [1] (setting [8]), in series [1] (setting [9]), in series [1] (setting [10]) and in series [1] (setting [11]) was 0 square mm each time.

Turning to `CCCCCCCCCCCCCCCC(=O)[O-].[Na+]` [palmitic acid-Na, sodium palmitate], the “surface of inhibition zone” value in series [1] (setting [8]), in series [1] (setting [9]), in series [1] (setting [10]) and in series [1] (setting [11]) was 0 square mm each time.

As to `CCCCCCCCCCCCCCCCCC(=O)[O-].[Na+]` [stearic acid-Na, sodium stearate], the “surface of inhibition zone” value in series [1] (setting [8]), in series [1] (setting [9]), in series [1] (setting [10]) and in series [1] (setting [11]) was 0 square mm in each case.
